Where two headings read alike, the source gives them in different places.
Columns and labels:
Assay type in all cases: cell-based
HeLa MKYP cells [1] = test: Human mitophagy assay (HeLa mKeima assay, FACS)
Summary of the method: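 Mitophagy, read by FACS as the share of cells showing the lysosomal mtKeima emission shift, followed 6 h of 1 uM FCCP/oligomycin stimulation. Before that, HeLa MKYP cells spent 16 h with compound over a concentration range.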

HeLa MKYP cells [2] = test: Cell death measured by DAPI staining, with 1 μM FCCP/oligomycin or no toxin (no FO); conditions: for Max cell death at 25 μM compound, 1 uM FO (%) / Cell death at 25 μM (no FO) (%): 25 μM compound
Summary of the method: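 Cell death was read by DAPI staining after 6–6.5 h compound exposure in HeLa MKYP cells, either with 1 μM FCCP/oligomycin or without toxin. H2O2 served as the cell-death control.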

[3] = Mitotoxicity / Mitotox safety margin (therapeutic window)
[4] = Homo sapiens, HeLa, read-out: Mitophagy induction EC50
[5] = Homo sapiens, HeLa, HeLa mKeima assay, read-out: Mitophagy EC50 (HeLa mKeima assay)
[6] = read-out: Mitophagy induction EC50

SMILES | EC50 (HeLa MKYP cells [1]; [4]) | Highest safe dose (cytotoxicity; no FO; safe means DAPI+ <20%) (HeLa MKYP cells [2]) | Max % death with 1 μM FO (HeLa MKYP cells [2]) | Mito-Safety Index (highest safe dose/EC50) [3] | Highest safe dose (μM) (mitotox or cytotox) [3] | EC50 (HeLa MKYP cells [1]; [5]) | Max cell death at 25 μM compound, 1 uM FO (%) (HeLa MKYP cells [2]) | Cell death at 25 μM (no FO) (%) (HeLa MKYP cells [2]) | Mitotox safety margin (Therapeutic window) [3] | EC50 (HeLa MKYP cells [1]; [6]) | EC50 (HeLa MKYP cells [1]; HeLa mKeima assay, read-out: Mitophagy EC50 (HeLa mKeima assay))
CO[C@H]1CCN([C@H]2COc3ccccc3[C@@H]2Nc2ncnc3[nH]c(C(F)(F)F)cc23)C1 [EP-0041172] | 10 nM | 25.0 µM | 8.4% | 121.36 | 1.1 µM | – | – | – | – | – | –
c1ccc2c(c1)CC[C@H](N1C[C@H]3COC[C@H]3C1)[C@H]2Nc1ncnc2[nH]c(C3CC3)cc12 [EP-0039713] | 100 nM | 25.0 µM | 26.3% | 9.46 | 0.9 µM | 100 nM | 19.2% | 12.9% | + (+ = <10) | – | –
c1ccc2c(c1)OC[C@H](N1CCOCC1)[C@H]2Nc1ncnc2[nH]c(C3CC3)cc12 [EP-0040080] | 480 nM | 25.0 µM | 13.9% | 51.66 | 25.0 µM | 590 nM | 16% | 4.73% | ++ (++ = 10 < x < 20) | – | –
C[C@@H]1CN([C@H]2CCc3ccccc3[C@@H]2Nc2ncnc3[nH]c(C(F)(F)F)cc23)CCO1 (single isomer, unassigned) [EP-0040491] | 70 nM | 25.0 µM | 19.4% | 49.72 | 3.7 µM | – | – | – | – | – | –
Fc1ccc2c(c1)CC[C@H](N1C[C@H]3COC[C@H]3C1)[C@H]2Nc1ncnc2[nH]c(C3CC3)cc12 [EP-0040601] | 190 nM | 25.0 µM | 45.3% | 55.12 | 10.3 µM | – | – | – | – | – | –
COC[C@H]1CCN([C@H]2COc3ccccc3[C@@H]2Nc2ncnc3[nH]c(C(F)(F)F)cc23)C1 (single isomer, unassigned) [EP-0041175] | – | 25.0 µM | 8.8% | 30.68 | 4.5 µM | – | – | – | – | 150 nM | –
COC[C@@H]1CCN(C2COc3ccccc3C2Nc2ncnc3[nH]c(C4CC4)cc23)C1 (single isomer, unassigned) [EP-0041514] | – | 25.0 µM | 8.1% | 38.63 | 1.4 µM | – | – | – | – | 30 nM | –
Fc1ccc2c(c1)OC[C@H](N1C[C@H]3COC[C@@H]3C1)[C@H]2Nc1ncnc2[nH]c(C(F)(F)F)cc12 (single isomer, unassigned) [EP-0040748] | – | 25.0 µM | 25.3% | 46.81 | 9.9 µM | – | – | – | – | 210 nM | –
N#Cc1ccc2c(c1)CC[C@H](N1C[C@H]3COC[C@H]3C1)[C@H]2Nc1ncnc2[nH]c(C(F)(F)F)cc12 [EP-0040120] | 2300 nM | 8.3 µM | 93.5% | – | 8.3 µM | – | – | – | – | – | –
CO[C@@H]1CCN([C@H]2COc3ccccc3[C@@H]2Nc2ncnc3[nH]c(C4CC4)cc23)C1 [EP-0041451] | 10 nM | 25.0 µM | 6.5% | 87.93 | 0.7 µM | – | – | – | – | – | –
C[C@@H]1CN([C@H]2COc3cc(F)ccc3[C@@H]2Nc2ncnc3[nH]c(C4CC4)cc23)C[C@H](C)O1 (single isomer, unassigned) [EP-0040842] | 20 nM | 25.0 µM | 22.5% | 82.00 | 2.0 µM | – | – | – | – | – | –
C[C@@H]1CN([C@H]2COc3ccccc3[C@@H]2Nc2ncnc3[nH]c(C4CC4)cc23)C[C@H](C)O1 (single isomer, unassigned) [EP-0040750] | 50 nM | 25.0 µM | 27.7% | 43.07 | 2.3 µM | – | – | – | – | – | –
C[C@@H]1CN([C@@H]2COc3ccccc3[C@H]2Nc2ncnc3[nH]c(C4CC4)cc23)CCO1 [EP-0040958] | 60 nM | 25.0 µM | 14.1% | 29.33 | 1.7 µM | – | – | – | – | – | –
C[C@@H]1CN([C@H]2CCc3ccccc3[C@@H]2Nc2ncnc3[nH]c(C4CC4)cc23)C[C@H](C)O1 (single isomer, unassigned) [EP-0040498] | 20 nM | 25.0 µM | 16.5% | 30.45 | 0.7 µM | – | – | – | – | – | –
FC(F)(F)c1cc2c(N[C@@H]3c4ccccc4OC[C@@H]3C3CCCOC3)ncnc2[nH]1 (single isomer, unassigned) [EP-0041005] | 1450 nM | 25.0 µM | 24.8% | 17.30 | 25.0 µM | – | – | – | – | – | –
COC1CN([C@H]2COc3ccccc3[C@@H]2Nc2ncnc3[nH]c(C(F)(F)F)cc23)C1 [EP-0040849] | – | 25.0 µM | 5.2% | 2.61 | 25.0 µM | – | – | – | – | 9590 nM | –
Fc1ccc2c(c1)CC[C@H](N1CCOCC1)[C@H]2Nc1ncnc2[nH]c(C3CC3)cc12 (single isomer, unassigned) [EP-0039746] | – | 25.0 µM | 13.4% | 9.48 | 2.8 µM | – | 15.3% | 3.3% | +++ (+++ = 20 < x < 30) | 290 nM | 250 nM
FC(F)(F)c1cc2c(N[C@H]3c4ccccc4OC[C@H]3C3CCCOC3)ncnc2[nH]1 (mixture of isomers) [EP-0041004] | 980 nM | 25.0 µM | 71.7% | 25.46 | 25.0 µM | – | – | – | – | – | –
FC(F)(F)c1cc2c(N[C@H]3c4ccccc4OC[C@@H]3N3C[C@H]4COC[C@H]4C3)ncnc2[nH]1 [EP-0040138] | 770 nM | 25.0 µM | 9.4% | 32.50 | 25.0 µM | – | – | – | – | – | –
FC(F)OC1CN([C@H]2COc3ccccc3[C@@H]2Nc2ncnc3[nH]c(C(F)(F)F)cc23)C1 (single isomer, unassigned) [EP-0041541] | 290 nM | 25.0 µM | 19.1% | 28.61 | 8.3 µM | – | – | – | – | – | –
COC1CN([C@H]2CCc3ccccc3[C@@H]2Nc2ncnc3[nH]c(C(F)(F)F)cc23)C1 [EP-0040688] | 310 nM | 8.3 µM | 82.1% | 26.96 | 8.3 µM | – | – | – | – | – | –
c1ccc2c(c1)CC[C@H](N1CCOCC1)[C@H]2Nc1ncnc2[nH]c(C3CC3)cc12 (single isomer, unassigned) [EP-0040108] | 130 nM | 25.0 µM | 19.1% | 138.83 | 18.3 µM | – | – | – | – | – | –
FC(F)(F)c1cc2c(N[C@H]3c4ccccc4OC[C@@H]3C3CCOCC3)ncnc2[nH]1 [EP-0040583] | 240 nM | 25.0 µM | 17.8% | 104.01 | 25.0 µM | – | – | – | – | – | –
c1ccc2c(c1)CC[C@H](N1C[C@@H]3COC[C@H]3C1)[C@H]2Nc1ncnc2[nH]c(C3CC3)cc12 [EP-0040768] | 50 nM | 25.0 µM | 33.1% | 57.75 | 3.0 µM | – | – | – | – | – | –
CN(c1ncnc2[nH]c(C(F)(F)F)cc12)C1c2ccccc2CCC1N1C[C@H]2COC[C@H]2C1 (stereo partly drawn) [EP-0039742] | 3360 nM | 25.0 µM | 20.4% | 7.45 | 25.0 µM | 3330 nM | 13.8% | 2.45% | – | – | –
c1ccc2c(c1)OC[C@@H](N1C[C@H]3COC[C@H]3C1)[C@@H]2Nc1ncnc2[nH]c(C3CC3)cc12 (single isomer, unassigned) [EP-0040392] | 110 nM | 25.0 µM | 11.8% | 153.83 | 16.6 µM | – | – | – | – | – | –
